This note sets out measurements from patent US11690832B2, “Treatment of autoimmune diseases with combinations of RXR agonists and thyroid hormones” (Io Therapeutics, Inc., priority 2016, dated 2023).

Each structure is given as a SMILES string. “Also recorded” adds a separate entry of the source.

For data set [1], the system named is Naive CD4+ CD25− FoxP3− cells. Kind of data set: Treg cell differentiation with RXR agonist in the presence of pan-RAR antagonist. It is filed as cell-based, mouse. The conditions noted are these: 1 nM or 10 nM 194310 with IRX4204 at 1.0 nM; Treg conditions. The protocol: Naive CD4^+ CD25^− FoxP3^− cells were purified from a Foxp3-GFP mouse using flow cytometry by sorting and isolating based upon a GFP^− phenotype. These cells were then cultured under Treg cell differentiation conditions by treating the cells with αCD3 and αCD28 polyclonal antibodies in the presence of IL-2 and TGF-β. […] The cultured cells were then assayed for the expression of Foxp3. […] However, this partial inhibition of Fox3p expression may actually be due to the blocking of the effects of endogenous RA in the culture medium.

A further data set has as its target T1, RXRγ (Homo sapiens, UniProt P48443).
T1 construct: an expression construct including a full length RXRα, RXRβ, or RXRγ; expressed in transfected cells; host or cells: CV-1
T1 sequence (P48443 1-463): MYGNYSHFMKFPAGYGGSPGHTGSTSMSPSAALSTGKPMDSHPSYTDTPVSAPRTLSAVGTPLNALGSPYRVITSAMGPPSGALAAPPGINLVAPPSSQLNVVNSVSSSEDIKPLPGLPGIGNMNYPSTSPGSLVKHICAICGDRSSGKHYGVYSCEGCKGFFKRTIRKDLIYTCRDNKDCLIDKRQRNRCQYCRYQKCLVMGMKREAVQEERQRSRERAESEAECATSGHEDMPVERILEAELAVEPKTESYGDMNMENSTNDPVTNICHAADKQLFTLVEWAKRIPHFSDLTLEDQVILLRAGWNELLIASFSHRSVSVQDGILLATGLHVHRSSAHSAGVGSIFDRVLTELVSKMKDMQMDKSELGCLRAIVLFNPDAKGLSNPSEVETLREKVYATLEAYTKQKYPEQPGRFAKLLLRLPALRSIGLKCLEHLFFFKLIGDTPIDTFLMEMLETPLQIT
Kind of data set: RXR homodimer transactivation assay (rCRBPII/RXRE-tk-Luc reporter) in CV-1 cells. It counts as cell-based.

For the next data set, the target named is RARα (Homo sapiens, UniProt P10276). The following applies: at ≥1 μM. The protocol: To determine whether a RXR agonist can mediate its effects via RXRα receptor homodimers, RXRβ receptor homodimers, RXRγ receptor homodimers, or any combination thereof, or the corresponding RAR/RXR heterodimers, receptor-mediated transactivation assays were performed. For transactivation assays assessing RXR homodimer signaling, CV-1 cells were transfected with 1) an expression construct including a full length RXRα, RXRβ, or RXRγ; and 2) a rCRBPII/RXRE-tk-Luc reporter construct that included RXR homodimer-specific RXRE/DR1 responsive element linked to a luciferase gene. For transactivation assays assessing RAR/RXR heterodimer signaling, CV-1 cells were transfected with 1) an expression construct comprising a fusion protein including an estrogen receptor (ER) DNA binding domain linked to the ligand binding domain of RARα, RARβ, or RARγ and 2) a ERE-tk-Luc reporter construct that included an estrogen receptor responsive element linked to a luciferase gene. […] Data are mean values ±SE from five independent experiments.

Another data set concerns the target T2, FXR/RXR (Homo sapiens, UniProt P19793).
T2 construct: expressed in transfected cells; host or cells: CV-1
Kind of data set: Permissive heterodimer transactivation assay, 3x(IBABP/IRI)-tk-Luc in CV-1 cells. The conditions noted are these: 20 hr; relative to GW4064. It counts as cell-based. From the text:
(§1) For PPARγ: CV-1 cells were transfected with 3×(rAOX/DR1)-tk-Luc reporter gene and an expression vector for PPARγ. For FXR:CV-1 cells were transfected with 3×(IBABP/IRI)-tk-Luc reporter gene and vectors for FXR and RXRα. For LXR:CV-1 cells were transfected with 3×(PLTP/LXRE)-tk-Luc reporter gene with vectors for LXRα or LXRβ. For Nurr1: COS7 cells were transfected with 3×NBRE-tk-luc reporter gene and full length Nurr-1 with or without full-length RXRα plasmid. […] Luciferase data were normalized to co-transfected β-gal activity. Luciferase activity was expressed as percent of maximal activity obtained using specific agonists. Rosiglitazone (PPARγ), GW4064 (FXR), T0901317 (LXR).

The test system of the next data set is LXRα/RXR. Kind of data set: Permissive heterodimer transactivation assay, 3x(PLTP/LXRE)-tk-Luc in CV-1 cells. The following applies: 20 hr; relative to T0901317. It is filed as cell-based.
From the text: as §1

For another data set, the system named is LXRβ/RXR. The data set is described as above. It counts as cell-based. The conditions noted are these: 20 hr; relative to T0901317.
From the text: as §1

The test system of the next data set is EAE in B6 mice. Kind of data set: EAE dose titration experiment with spleen and CNS flow cytometry. It is filed as in vivo, mouse. The conditions noted are these: 200 μg/day vs vehicle control. The method, then: A dose titration experiment was also conducted in EAE mice. EAE was induced in 28 B6 mice with MOG/CFA and PT as above. Mice were scored on day 7 as indicated above and divided into groups by score so means are as equal as possible.
At the completion of the experiment, the vehicle control and 200 μg/day groups were euthanized and spleen and CNS samples obtained.
Additionally, CD4+ CD25hi cells (generally consisting of TReg) were reduced, although the frequency was not altered (FIGS. 9A and 9B).
Restimulation with PMA/lonomycin was used to help detect the cytokine production.
(In general: In flow cytometry, cells or beads pass a laser one at a time.)

The next data set concerns EAE in C57BL/6 (B6) mice. Kind of data set: CNS infiltrating cells in EAE mice (FACS, day 20). The conditions noted are these: day 20 after immunization, vs vehicle control. It is filed as in vivo, mouse. The method, then:
To determine whether a RXR agonist can reduce central nervous system (CNS) infiltrating cells, C57BL/6 (B6) mice were treated as described in Example 6. On day 20 after immunization, mice were sacrificed and perfused with phosphate buffered saline (PBS). Brain and spinal cord tissue was isolated, digested with DNase and Liberase DL (Roche Diagnostics, Indianapolis, Ind.) for 30 minutes, and homogenized through 70 micron nylon mesh filters. Resulting cells were placed over a Percoll gradient to remove myelin. The remaining cells (microglia and CNS infiltrating cells) were counted, stained for molecules of interest, and run on a flow cytometer. Based on the frequencies obtained by FACS of these cell populations, total cell numbers of CNS infiltrating leukocytes expressing CD45, including CD4^+ T cells and CD11c^+ CD11b^+ myeloid dendritic cells (DC), were calculated.

The test system of data set [2] is oligodendrocyte precursor cells (OPCs). Kind of data set: Oligodendrocyte precursor cell differentiation (PLP-EGFP, Cellomics). The following applies: compared to negative control (DMSO). It is filed as cell-based, mouse. An excerpt: OPCs were generated from a neurosphere culture of E14.5 PLP-EGFP (on C57BL/6J background) mouse brains. […] The EGFP expressing cells were quantified with Cellomics Neuronal Profiling Algorithm.
The EGFP expressing cells in controls and all compounds were quantified with Cellomics Neuronal Profiling Algorithm.

Data set [3] concerns ethidium bromide demyelination of caudal cerebellar peduncles in one year old rats. Kind of data set: Focal toxin (ethidium bromide) induced rat model of demyelination. It counts as in vivo. The conditions noted are these: IRX4204 10 mg/kg/day oral.
Protocol: The experiment uses rats of relatively advanced age (1 year) since such rats undergo remyelination in a less efficient manner, thereby providing data that are more relevant to the clinical treatment of human patients with multiple sclerosis or other demyelination disorders.
Focal demyelination is induced in one year old rats (approximately 300 g in weight) by injecting stereotactically 5 μl of ethidium bromide solution (0.01% vol/vol in saline) in a bilateral manner into the caudal cerebellar peduncles (CCP). […] The rats are killed on day 24 post-ethidium bromide treatment for analysis of remyelination by quantitative polymerase chain reaction (qPCR) and microscopy.
Data set [4] has as its system cuprizone/rapamycin demyelination in C57BL/6J mice. Put plainly: 12-week cuprizone/rapamycin demyelination model, 6 weeks of treatment (remyelination). It is filed as in vivo, mouse. The conditions noted are these: 10 mg/kg PO daily for 6 weeks after 12 weeks CR. An excerpt:
All animals were sacrificed after 12 weeks of CR or after further 6 weeks of treatment to evaluate myelin in white matter (corpus callosum) and gray matter (hippocampus and cortex). In addition, the size of myelinated axons was quantified and the large myelinated axons were further assessed by 3D-electron microscopy (3D-EM). A total of 40 animals were included in the study, where all 40 animals received CR demyelination for 12 weeks. After demyelination, a subset (n=10) of animals are sacrificed to serve as controls to assess baseline demyelination. […] Floating brain sections are immunostained with myelin prolipid protein (PLP) to visualize and quantify myelin in gray matter, hippocampus (FIG. 16A) and cortex (FIG. 16B).

Data set [5] relates to Naive CD4+ CD25− FoxP3− cells. Kind of data set: T cell differentiation under Th17 cell differentiation conditions (Foxp3, IL-17A). It is filed as cell-based, mouse. The conditions noted are these: 0, 1, 10, 100 nM, with increasing concentration. The protocol: To determine whether a RXR agonist can regulate T cell differentiation, the ability of an RXR agonist to promote Treg cell differentiation and inhibit Th17 cell differentiation under Th17 cell differentiation conditions was assessed by monitoring Foxp3 and IL-17A expression. Naive CD4^+ CD25^− FoxP3^− cells were purified from a Foxp3-GFP mouse using flow cytometry by sorting and isolating based upon a GFP^− phenotype.

Data set [6] has as its system cuprizone plus rapamycin (CR) demyelination in C57BL/6J mice.
From the text: Animals (8 week-old male C57BL/6J mice) were subjected to cuprizone diet plus rapamycin injections (CR) for 6 weeks to induce demyelination. […] All animals were sacrificed after 6 weeks of CR to evaluate axonal integrity and microglial/macrophage activity in the white matter (corpus callosum, CC).
A total of 50 animals were included in the study, where 43 animals received CR demyelination for 6 weeks. During demyelination, a subset (n=7) of animals were kept on normal diet to serve as naïve age-matched controls.

T2 sequence (Q96RI1 whole entry partner): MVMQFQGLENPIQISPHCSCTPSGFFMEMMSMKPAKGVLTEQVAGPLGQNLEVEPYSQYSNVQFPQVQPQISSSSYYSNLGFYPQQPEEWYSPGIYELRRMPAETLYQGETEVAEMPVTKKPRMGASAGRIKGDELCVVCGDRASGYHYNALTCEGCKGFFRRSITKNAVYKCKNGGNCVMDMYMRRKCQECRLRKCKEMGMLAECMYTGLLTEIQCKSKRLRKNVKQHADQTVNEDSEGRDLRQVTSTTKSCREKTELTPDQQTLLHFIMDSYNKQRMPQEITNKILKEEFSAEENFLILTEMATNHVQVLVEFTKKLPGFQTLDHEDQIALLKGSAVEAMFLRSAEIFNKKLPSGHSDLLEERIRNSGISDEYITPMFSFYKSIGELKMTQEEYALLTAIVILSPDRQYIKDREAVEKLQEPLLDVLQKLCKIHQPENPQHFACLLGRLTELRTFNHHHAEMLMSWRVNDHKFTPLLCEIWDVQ
T2 sequence (P19793 whole entry): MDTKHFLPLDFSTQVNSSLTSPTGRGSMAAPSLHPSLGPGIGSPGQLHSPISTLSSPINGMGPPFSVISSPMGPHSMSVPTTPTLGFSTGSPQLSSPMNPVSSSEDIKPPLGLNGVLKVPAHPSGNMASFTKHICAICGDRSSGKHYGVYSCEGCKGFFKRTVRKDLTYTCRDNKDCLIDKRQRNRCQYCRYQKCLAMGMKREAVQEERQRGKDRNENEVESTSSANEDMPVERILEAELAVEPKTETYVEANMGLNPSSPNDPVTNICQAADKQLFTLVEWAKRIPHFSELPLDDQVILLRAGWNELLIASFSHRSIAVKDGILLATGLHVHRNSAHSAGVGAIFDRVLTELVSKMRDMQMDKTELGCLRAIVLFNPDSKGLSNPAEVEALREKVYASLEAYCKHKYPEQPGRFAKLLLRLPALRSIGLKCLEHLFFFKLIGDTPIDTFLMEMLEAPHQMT
Sequence of RARα (P10276 183-417 limits assumed, species assumed): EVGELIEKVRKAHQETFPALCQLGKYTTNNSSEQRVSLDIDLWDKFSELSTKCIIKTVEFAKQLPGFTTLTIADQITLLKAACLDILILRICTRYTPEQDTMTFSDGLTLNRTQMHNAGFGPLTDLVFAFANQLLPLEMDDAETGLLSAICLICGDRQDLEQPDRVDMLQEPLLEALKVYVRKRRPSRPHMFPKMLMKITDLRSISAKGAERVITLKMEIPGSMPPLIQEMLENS
Protocol for RXRγ: To determine whether a RXR agonist can mediate its effects via RXRα receptor homodimers, RXRβ receptor homodimers, RXRγ receptor homodimers, or any combination thereof, or the corresponding RAR/RXR heterodimers, receptor-mediated transactivation assays were performed. For transactivation assays assessing RXR homodimer signaling, CV-1 cells were transfected with 1) an expression construct including a full length RXRα, RXRβ, or RXRγ; and 2) a rCRBPII/RXRE-tk-Luc reporter construct that included RXR homodimer-specific RXRE/DR1 responsive element linked to a luciferase gene. For transactivation assays assessing RAR/RXR heterodimer signaling, CV-1 cells were transfected with 1) an expression construct comprising a fusion protein including an estrogen receptor (ER) DNA binding domain linked to the ligand binding domain of RARα, RARβ, or RARγ and 2) a ERE-tk-Luc reporter construct that included an estrogen receptor responsive element linked to a luciferase gene. The ER-RAR fusion proteins provided an accurate readout of only the transfected ER-RAR. […] Data are mean values ±SE from five independent experiments.

Regarding `CCc1ccc(C2=CC(C)(C)Sc3ccc(C#Cc4ccc(C(=O)O)cc4)cc32)cc1` [Compound 194310], the “effect on induction of Foxp3 expression by RXR agonist” value in data set [1] is recorded as “only partially blocked”.

Take `CC(/C=C/[C@@H]1C[C@]1(C)c1ccc2c(c1)C(C)(C)CCC2(C)C)=C\C(=O)O` [IRX4204, 3,7-dimethyl-6(S),7(S)-methano,7-[1,1,4,4-tetramethyl-1,2,3,4-tetrahydronaphth-7-yl]2(E),4(E) heptadienoic acid]: the “Efficacy (% of 1 μM IRX4204) RXRγ” value on RXRγ is reported as 0.09 ± 0.01 100 % of 1 μM IRX4204. At RARα, the RARα activity detected entry is recorded as “minimal activity”. Moreover, the “activation of FXR/RXR heterodimer” value at FXR/RXR was “not to transactivate; also recorded: does not activate”. Besides, the “activation of LXRα/RXR heterodimer” value in the data set with LXRα/RXR is on record as “not to transactivate; also recorded: does not activate”. Also, the “activation of LXRβ/RXR heterodimer” value in the data set with LXRβ/RXR was “not to transactivate; also recorded: does not activate”. In the data set with EAE in B6 mice, the “CD4+ CD25hi cells frequency, spleen” value is reported as “not altered”; the “co-expression of IFNγ and IL-17A by CD4 T cells in CNS” value is given as “not significantly different between groups”. In the data set with EAE in C57BL/6 (B6) mice, the “infiltration of CD4+ cells into CNS” value is reported as “significant reduction” and the “infiltration of CD11c+ CD11b+ cells (myeloid DC) into CNS” value is on record as “significant reduction”. Besides, the “OPC differentiation into oligodendrocytes (EGFP positive cells)” value in data set [2] is “significant increase; also recorded: dose dependent increase”. The “densities of Olig2+ oligodendrocyte lineage cells and CC1+ differentiated oligodendrocytes in lesions” value in data set [3] (day 7 to 21, ± 20 ng/g s.c. thyroxine) is recorded as “increased”. In [3] (± 20 ng/g s.c. thyroxine), the “Mbp and Pdgfra expression (real-time qPCR of lesion samples)” value is reported as “increase”. In data set [4], the “size of myelinated axons in the corpus callosum” value is reported as “significant increase”. Further, in [5], the “Foxp3 expression (Treg cells)” value is on record as “increased” and the “IL-17A expression (Th17 cells)” value is reported as “decreased”. In addition, the “health concerns during the treatment phase” value in data set [6] (6 weeks) is on record as “no observed health concerns”. Besides, in [6] (compared to Vehicle, 6 weeks concurrent with CR), the “number of SMI32 positive axonal ovoids in corpus callosum” value is “not statistically different from the Vehicle”. In addition, the “Iba1 staining (microglial/macrophage activation) in corpus callosum” value in data set [6] (compared to vehicle) is “no difference”.
